Patent US7872052B2, “Use of heterocyclic compounds as SCCE inhibitors” (Arexis AB, priority 2003, dated 2011)

Legend:
[1] = system: Transgenic mice over-expressing human SCCE; assay: Histological studies of skin morphology in SCCE transgenic mice after topical treatment; assay type: in vivo; conditions: for side effects (unusually thin epidermis): day 8 histology; for Unusually thin epidermis / Morphology changes: topical once daily 8 days, day 8; for Unusually thin epidermis: mice affected/mice in group; for Morphology changes: mice with changes/mice in group
Description: (§1) Transgenic mice over-expressing human SCCE under the control of the SV40 early promoter were generated as described in WO 02/062135. These transgenic mice show a pattern of SCCE-expression which is similar to the expression pattern seen in psoriasis lesions and chronic lesions in atopic dermatitis in humans, i.e. expression in suprabasal cells which increases with distance from the basal layer. The transgenic mice develop pathological skin changes with marked hyperkeratosis, increased epidermal thickness, and dermal inflammation. From the age of 8-10 weeks transgenic mice show signs of itch, the frequency of which increase with age. The increase marked changes in skin morphology including increased epidermal thickness, also causes higher transepidermal water loss.
(§2) Transgenic mice, 6-9 month of age, were treated daily with compound I-3 (2-(2-Iodo-phenyl)-6,7-dimethoxy-benzo[d][1,3]oxazin-4-one) which was identified as an SCCE inhibitor as described above during 8 days. The substance was initially dissolved in DMSO and formulated in vehicle containing 45% isopropanol, 6% 1,2-propanediol with a 1.2% final concentration of DMSO. Two different concentrations of inhibitor, 300 μM and 30 μM, were formulated.
The study contained four different treatments with 3-4 mice in each group. Each mouse used in the study had phenotypic changes typical of SCCE transgenic animals.
• high dose (300 μM) of compound I-3 • low dose (30 μM) of compound I-3 • positive control (a pharmaceutical formulation (Betnovat, Glaxo SmithKline AB) containing betametasone) • negative control, vehicle (a pharmaceutical formulation lacking active substance)
The formulations (500 μl/mouse) were applied once daily (late afternoon) on the area around the ears and on the back of the mice. Mice were treated during 8 days and measurements of transepidermal water loss (TEWL) were performed during the treatment period.
Histological studies of skin morphology were performed on sacrificed mice after the last day of treatment (day 8). Tissue samples were fixed in 4% phosphate-buffered formaldehyde for 24 h in room temperature (RT) and then embedded in paraffin using standard histological procedure. To analyze tissue morphology, embedded tissue was sectioned (5 μm) and then stained with haematoxylin and Eosin (H/E) using standard histological protocols.

[2] = molecular target: T1, Recombinant active human SCCE (Homo sapiens, UniProt P49862); assay: SCCE Inhibitor Test (chromogenic substrate S-2586, absorbance at 405 nm); assay type: biochemical; conditions: for IC50: 10 min preincubation, 1 mM S-2586, 60 min, 37° C, pH 7.2; for remaining activity at 1 µM: 1 μM compound; for remaining activity at 5 µM: 5 μM compound
T1 construct: made in house; host or cells: murine C127 cells transfected with a BPV vector (murine MT promoter)
Description: Recombinant active human SCCE was produced essentially as described in WO 95/00651. The cDNA encoding human SCCE was introduced into a BPV vector under the control of the murine MT promoter and expressed in transfected C127 cells. The produced SCCE was purified and activated using immobilized bovine trypsin.
SCCE activity was determined using the chromogenic substrate S-2586 (MeO-Suc-Arg-Pro-Tyr-pNA) (Chromogenix, Mölndal, Sweden) by measurement of the change in absorbance at 405 nm essentially as described in WO 95/00651. Inhibitors were dissolved in DMSO and added to the reaction mixture (10 mM sodium phosphate, pH 7.2, 0.5 M NaCl, 2.5 μg/ml SCCE) at appropriate concentrations followed by incubation for 10 min before the start of the enzymatic reaction by subsequent addition of the substrate S-2586 to a final concentration of 1 mM. The change in absorbance at 405 nm after 60 min was recorded and used as a measure of SCCE activity. The assay temperature was 37° C. […] The IC50 values were used to identify compounds as SCCE inhibitors of the invention.

[3] = system: Transgenic mice over-expressing human SCCE; assay: Transepidermal water loss (TEWL) in SCCE transgenic mice after topical treatment; assay type: in vivo; conditions: both concentrations (30 μM and 300 μM), topical once daily, 8 days, relative to positive control Betamethasone
Description: as §1
as §2, with “Two different concentrations of inhibitor, 300 μM and 30 μM, were formulated.” left out
TEWL was measured on the back of mice with an Evaporimeter from DermaLAB (Cortex Technology ApS, Hadsund, Denmark) according to manufactures protocol. […] TEWL was measured on in the morning at day 0, 3, 5 and 8 for 1 min repeated twice.

[4] = positive control formulation (Betnovat)

T1 sequence (P49862 30-253): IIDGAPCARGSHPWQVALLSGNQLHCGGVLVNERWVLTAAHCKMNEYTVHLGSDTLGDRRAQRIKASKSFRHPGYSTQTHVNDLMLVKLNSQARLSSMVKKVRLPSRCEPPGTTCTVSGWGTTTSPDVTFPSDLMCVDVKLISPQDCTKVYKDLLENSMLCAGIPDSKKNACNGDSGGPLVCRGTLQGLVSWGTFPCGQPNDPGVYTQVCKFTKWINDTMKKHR

Structure (SMILES)	IC50 [2] [nM]	remaining activity at 1 µM ([2]; 1 h) [%]	remaining activity at 5 µM ([2]; 1 h) [%]	also measured
C[C@H]1C[C@H]2[C@@H]3CCC4=CC(=O)C=C[C@]4(C)[C@@]3(F)[C@@H](O)C[C@]2(C)[C@@]1(O)C(=O)CO [Betamethasone, reference compound]	–	–	–	side effects (unusually thin epidermis) [1]: side effects (unusually thin epidermis) found; Unusually thin epidermis [1, 4]: 3/3; Morphology changes [1, 4]: 0/3
O=c1oc(-c2ccccc2)nc2sc3c(c12)CCCC3 [II-17, 2-Phenyl-5,6,7,8-tetrahydro-3-oxa-9-thia-1-aza-fluoren-4-one]	700	45	33	–
O=c1oc(-c2cccc3ccccc23)nc2sc3c(c12)CCCC3 [II-18, 2-Naphtalen-1-yl-5,6,7,8-tetrahydro-3-oxa-9-thia-1-aza-fluoren-4-one]	1000	38	41	–
O=c1oc(-c2cccs2)nc2sc3c(c12)CCCC3 [II-19, 2-Thiophen-2-yl-5,6,7,8-tetrahydro-3-oxa-9-thia-1-aza-fluoren-4one]	1000	52	41	–
COc1cccc(-c2nc3sc4c(c3c(=O)o2)CCCC4)c1 [II-20, 2-(3-Methoxy-phenyl)-5,6,7,8-tetrahydro-3-oxa-9-thia-1-aza-fluoren-4-one]	2000	52	42	–
O=c1oc(-c2ccncc2)nc2sc3c(c12)CCCCC3 [II-21, 2-Pyridin-4-yl-6,7,8,9-tetrahydro-5H-3-oxa-10-thia-1-aza-benzo[a]azulen-4-one]	2000	–	–	–
Cc1nc2sc3c(c2c(=O)o1)CCCCC3 [II-22, 2-Methyl-6,7,8,9-tetrahydro-5H-3-oxa-10-thia-1-aza-benzo[a]azulen-4-one]	> 10000	49	27	–

The remaining compounds from weak to strong by IC50 [2], led by results:

IC50 [2] [nM]	remaining activity at 1 µM ([2]; 1 h) [%]	remaining activity at 5 µM ([2]; 1 h) [%]	Structure (SMILES)	also measured
300	37	14	O=c1oc(-c2ccc(F)cc2)nc2sc3c(c12)CCC3 [II-13, 6-(4-Fluoro-phenyl)-2,3-dihydro-1H-5-oxa-8-thia-7-aza-cyclopenta[a]inden-4-one]	–
300	37	21	O=c1oc(-c2cccs2)nc2sc3c(c12)CCC3 [II-14, 6-Thiophen-2-yl-2,3-dihydro-1H-5-oxo-8-thia-7-aza-cyclopenta[a]inden-4-one]	–
100	–	–	COc1cc2nc(-c3ccccc3I)oc(=O)c2cc1OC [Compound I-3, 2-(2-Iodo-phenyl)-6,7-dimethoxy-benzo[d][1,3]oxazin-4-one]	remaining activity at 10 µM ([2]; 1 h, 10 μM compound): 0%; improvement of TEWL [3]: improves TEWL with approximately half the efficiency of the positive control; Unusually thin epidermis ([1]; 30 μM): 0/4; Morphology changes ([1]; 30 μM): 1/4; Unusually thin epidermis ([1]; 300 μM): 0/4; Morphology changes ([1]; 300 μM): 1/4; effects on skin morphology ([1]; both concentrations (30 μM and 300 μM), compared with vehicle group): positive effects on skin morphology to a higher degree then vehicle group; side effects (unusually thin epidermis) [1]: without the side effects
70	7	2.4	O=c1oc(-c2ccccc2F)nc2sc3c(c12)CCCC3 [II-15, 2-(2-Fluoro-phenyl)-5,6,7,8-tetrahydro-3-oxa-9-thia-1-aza-fluoren-4-one]	–
70	2.7	0	COc1ccccc1-c1nc2sc3c(c2c(=O)o1)CCCC3 [II-16, 2-(2-Methoxy-phenyl)-5,6,7,8-tetrahydro-3-oxa-9-thia-1-aza-fluoren-4-one]	–
